We go through 36 molecules from patent US10513523B2, “Imidazopyrazines and pyrazolopyrimidines and their use as AMPA receptor modulators” (Janssen Pharmaceutica NV, priority 2015, dated 2019).

In the assay the target is GluA1o-γ8 (GRIA1o-CACNG8 fusion construct; TARP γ8 dependent AMPA receptor) (Homo sapiens (Human), UniProt P42261+Q8WXS5). Description: Calcium flux assay (FLIPR), inhibition of glutamate response of GluA1o-γ8 channel. In kind it is cell-based. The conditions noted are these: HEK293 cells stably expressing GRIA1o-CACNG8 fusion; 15 μM glutamate; pIC50 = negative log of IC50 in molar; read-out: GluR1-γ8 (pIC50) (converted). In outline:
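Potency is the midpoint of a four-parameter logistic fit to control-normalized FLIPR calcium responses elicited by 15 μM glutamate. Stable HEK293 cells carried a fused GluA1o-γ8 construct and were preincubated with compound and calcium dye in pH 7.4 HEPES buffer.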
On the technique in general: Calcium assays in cells follow changes in intracellular calcium, usually with a dye or a luminescent sensor.

GluA1o-γ8 (GRIA1o-CACNG8 fusion construct; TARP γ8 dependent AMPA receptor), sequence (P42261 other isoform, or with tags, fused parts or gaps): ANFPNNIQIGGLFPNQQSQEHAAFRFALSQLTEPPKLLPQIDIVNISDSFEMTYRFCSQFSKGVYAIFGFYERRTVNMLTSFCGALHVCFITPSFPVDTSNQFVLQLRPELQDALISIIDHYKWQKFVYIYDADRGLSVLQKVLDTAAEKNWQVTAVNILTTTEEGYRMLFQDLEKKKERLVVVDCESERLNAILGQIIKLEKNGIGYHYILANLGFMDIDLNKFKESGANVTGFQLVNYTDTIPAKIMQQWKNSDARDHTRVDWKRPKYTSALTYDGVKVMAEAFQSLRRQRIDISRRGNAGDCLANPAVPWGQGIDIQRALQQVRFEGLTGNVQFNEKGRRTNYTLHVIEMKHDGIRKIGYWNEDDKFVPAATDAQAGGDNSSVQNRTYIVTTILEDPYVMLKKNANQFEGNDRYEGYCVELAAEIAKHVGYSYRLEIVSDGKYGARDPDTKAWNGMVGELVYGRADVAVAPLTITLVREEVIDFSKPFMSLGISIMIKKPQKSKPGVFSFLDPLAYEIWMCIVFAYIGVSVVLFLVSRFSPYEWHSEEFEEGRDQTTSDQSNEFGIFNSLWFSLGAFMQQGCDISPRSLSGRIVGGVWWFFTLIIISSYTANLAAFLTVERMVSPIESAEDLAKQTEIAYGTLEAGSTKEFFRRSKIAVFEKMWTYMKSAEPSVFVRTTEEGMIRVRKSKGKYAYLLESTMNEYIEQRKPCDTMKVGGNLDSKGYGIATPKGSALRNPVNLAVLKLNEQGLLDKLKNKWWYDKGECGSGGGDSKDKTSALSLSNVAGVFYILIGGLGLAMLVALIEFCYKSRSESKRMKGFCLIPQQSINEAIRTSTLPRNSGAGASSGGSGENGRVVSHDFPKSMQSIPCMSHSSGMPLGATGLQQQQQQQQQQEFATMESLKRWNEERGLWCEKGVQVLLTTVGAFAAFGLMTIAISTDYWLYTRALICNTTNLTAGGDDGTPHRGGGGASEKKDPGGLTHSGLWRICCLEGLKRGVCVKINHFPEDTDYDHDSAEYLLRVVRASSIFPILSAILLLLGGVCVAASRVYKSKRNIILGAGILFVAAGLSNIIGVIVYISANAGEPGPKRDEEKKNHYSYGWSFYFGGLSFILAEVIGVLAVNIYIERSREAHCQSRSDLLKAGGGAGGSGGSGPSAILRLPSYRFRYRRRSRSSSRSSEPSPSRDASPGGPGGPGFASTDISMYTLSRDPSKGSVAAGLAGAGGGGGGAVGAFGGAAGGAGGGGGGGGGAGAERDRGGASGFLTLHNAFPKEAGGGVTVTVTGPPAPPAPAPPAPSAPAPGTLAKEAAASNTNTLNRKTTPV

With `O=C1CN(c2nccn3c(-c4ccc5[nH]c(=O)[nH]c5c4)c(-c4ccc(F)cc4)nc23)CCN1` [Example 34, 5-[2-(4-Fluorophenyl)-8-(3-oxopiperazin-1-yl)imidazo[1,2-a]pyrazin-3-yl]-1,3-dihydrobenzimidazol-2-one], the IC50 was 1.26 nM.
For `CC1(C)COCCN1c1nccn2c(-c3ccc4c(c3)CC(=O)N4)c(-c3ccc(F)cc3)nc12` [Example 50, 5-[8-(3,3-Dimethylmorpholin-4-yl)-2-(4-fluorophenyl)imidazo[1,2-a]pyrazin-3-yl]indolin-2-one], the IC50 was 31.6 nM.
Take `O=S1(=O)Cc2cc(-c3c(-c4ccc(F)cc4)nn4c(N5CCOCC5)nccc34)ccc2N1` [Example 178, 5-[2-(4-Fluorophenyl)-7-morpholino-pyrazolo[1,5-c]pyrimidin-3-yl]-1,3-dihydro-2,1-benzothiazole 2,2-dioxide]: the IC50 is 2 nM.
As to `CC(C)Oc1nccn2c(-c3ccc4c(c3)CC(=O)N4)c(-c3ccc(F)cc3)nc12` [Example 129, 5-[2-(4-Fluorophenyl)-8-isopropoxy-imidazo[1,2-a]pyrazin-3-yl]indolin-2-one], the IC50 is 20 nM.
Consider `O=C1Cc2cc(-c3c(-c4ccc(F)cc4)nn4cnccc34)ccc2N1` [Example 175, 5-[2-(4-Fluorophenyl)pyrazolo[1,5-c]pyrimidin-3-yl]indolin-2-one], for which the IC50 is 631 nM.
As for `O=C1Cc2cc(-c3c(-c4ccccc4)nc4c(N5CCC(CF)CC5)nccn34)ccc2N1` [Example 76, 5-[8-[4-(Fluoromethyl)-1-piperidyl]-2-phenyl-imidazo[1,2-a]pyrazin-3-yl]indolin-2-one], the IC50 is 0.251 nM.
The result for `O=C1Cc2cc(-c3c(-c4ccc(F)cc4)nc4c(N5CC(Cl)C5)nccn34)ccc2N1` [Example 61, 5-[8-(3-Chloroazetidin-1-yl)-2-(4-fluorophenyl)imidazo[1,2-a]pyrazin-3-yl]indolin-2-one] reads 1.58 nM; that for `CC(C)c1nn2c(N3CCOCC3)ncc(F)c2c1-c1ccc2[nH]ncc2c1` [Example 236, 4-[4-Fluoro-3-(1H-indazol-5-yl)-2-isopropyl-pyrazolo[1,5-c]pyrimidin-7-yl]morpholine], 158 nM; that for `Cc1cnc(N2CCOCC2)n2nc(C(C)C)c(-c3ccc4[nH]ncc4c3)c12` [Example 239, 4-[3-(1H-Indazol-5-yl)-2-isopropyl-4-methyl-pyrazolo[1,5-c]pyrimidin-7-yl]morpholine], 39.8 nM.
In the case of `CCCNC(=O)c1nc2c(N3CCOCC3)nccn2c1-c1ccc(O)cc1` [Example 148, 3-(4-Hydroxyphenyl)-8-morpholino-N-propyl-imidazo[1,2-a]pyrazine-2-carboxamide], the IC50 was 631 nM.
The result for `CC(=O)N[C@@H]1CCN(c2nccn3c(-c4ccc5c(c4)CC(=O)N5)c(-c4ccc(F)cc4)nc23)C1` (single isomer, unassigned) [Example 150] reads 3.16 nM; that for `O=c1[nH]c2ccc(-c3c(C4CCC4)nn4cnc(C(F)(F)F)cc34)cc2s1` [Example 229, 6-[2-Cyclobutyl-5-(trifluoromethyl)pyrazolo[1,5-c]pyrimidin-3-yl]-3H-1,3-benzothiazol-2-one], 15.8 nM.
As to `CC(=O)N1CCN(c2nccn3c(-c4ccc5[nH]ncc5c4)c(-c4ccc(C#N)cc4)nc23)CC1` [Example 103, 4-[8-(4-Acetylpiperazin-1-yl)-3-(1H-indazol-5-yl)imidazo[1,2-a]pyrazin-2-yl]benzonitrile], the IC50 is 0.794 nM.
With `O=c1[nH]c2ccc(-c3c(-c4ccc(F)cc4)nc4c(N5CCOCC5)nccn34)cc2o1` [Example 116, 6-(2-(4-Fluorophenyl)-8-morpholinoimidazo[1,2-a]pyrazin-3-yl)benzo[d]oxazol-2(3H)-one], the IC50 is 3.16 nM.
Consider `COC1CCN(c2nccc3c(-c4ccc5[nH]c(=O)sc5c4)c(-c4ccccc4)nn23)CC1` [Example 213, 6-[7-(4-Methoxy-1-piperidyl)-2-phenyl-pyrazolo[1,5-c]pyrimidin-3-yl]-3H-1,3-benzothiazol-2-one], for which the IC50 is 0.0631 nM.
With `O=C1Cc2cc(-c3c(-c4ccccc4)nn4c(N5CCOCC5)nccc34)ccc2N1` [Example 201, 5-(7-Morpholino-2-phenyl-pyrazolo[1,5-c]pyrimidin-3-yl)indolin-2-one], the IC50 was 1 nM.
`CC(=O)N1CCN(c2nccn3c(-c4ccc5[nH]c(=O)[nH]c5c4)c(Cc4ccccc4)nc23)CC1` [Example 19, 5-[8-(4-Acetylpiperazin-1-yl)-2-benzyl-imidazo[1,2-a]pyrazin-3-yl]-1,3-dihydrobenzimidazol-2-one]: the IC50 is 3.98 nM.
As for `O=c1[nH]c2ccc(-c3c(-c4ccccc4)nc4cnc(C(F)(F)F)cn34)cc2s1` [Example 245, 6-[2-Phenyl-6-(trifluoromethyl)imidazo[1,2-a]pyrazin-3-yl]-3H-1,3-benzothiazol-2-one], the IC50 was 12.6 nM.
For `O=C1Cc2cc(-c3c(-c4ccc(F)cc4)nc4c(N5CCC(F)CC5)nccn34)ccc2N1` [Example 74, 5-[2-(4-Fluorophenyl)-8-(4-fluoro-1-piperidyl)imidazo[1,2-a]pyrazin-3-yl]indolin-2-one], the IC50 is 0.0794 nM.
For `CC(=O)N1CCN(c2nccn3c(-c4ccc5c(c4)CC(=O)N5)c(C(=O)c4ccccc4)nc23)CC1` [Example 158, 5-[8-(4-Acetylpiperazin-1-yl)-2-benzoyl-imidazo[1,2-a]pyrazin-3-yl]indolin-2-one], the IC50 was 5.01 nM.
As for `N#Cc1ccc(-c2nc3c(N4CCNC(=O)C4)nccn3c2-c2ccc3c(c2)CC(=O)N3)cc1` [Example 210, 4-[3-(2-Oxoindolin-5-yl)-8-(3-oxopiperazin-1-yl)imidazo[1,2-a]pyrazin-2-yl]benzonitrile], the IC50 is 20 nM.
Then `O=C1Cc2cc(-c3c(-c4ccc(F)cc4)nn4c(N5CC(O)C5)nccc34)ccc2N1` [Example 179, 5-[2-(4-Fluorophenyl)-7-(3-hydroxyazetidin-1-yl)pyrazolo[1,5-c]pyrimidin-3-yl]indolin-2-one], with 6.31 nM; and `CC(C)c1nn2c(N3CCOCC3)nccc2c1-c1ccc2[nH]c(=O)sc2c1` [Example 240, 6-(2-Isopropyl-7-morpholino-pyrazolo[1,5-c]pyrimidin-3-yl)-3H-1,3-benzothiazol-2-one], with 15.8 nM.
As to `O=C1Cc2cc(-c3c(-c4ccc(F)cc4)nc4c(N5CCCC(O)C5)nccn34)ccc2N1` (stereo not drawn) [Example 54, 5-[2-(4-Fluorophenyl)-8-(3-hydroxy-1-piperidyl)imidazo[1,2-a]pyrazin-3-yl]indolin-2-one], the IC50 is 0.316 nM.
`Oc1ccc(-c2c(-c3ccccc3F)nc3c(N4CCOCC4)nccn23)cc1` [Example 84, 4-[2-(2-Fluorophenyl)-8-morpholino-imidazo[1,2-a]pyrazin-3-yl]phenol]: the IC50 was 63.1 nM.
Regarding `O=C1Cc2cc(-c3c(-c4ccc(F)cc4)nn4c(N5CC(F)(F)C5)nccc34)ccc2N1` [Example 176, 5-[7-(3,3-Difluoroazetidin-1-yl)-2-(4-fluorophenyl)pyrazolo[1,5-c]pyrimidin-3-yl]indolin-2-one], the IC50 is 3.16 nM.
Consider `O=C1Cc2cc(-c3c(C(=O)c4ccccc4)nc4c(N5CCC(O)CC5)nccn34)ccc2N1` [Example 154, 5-[2-Benzoyl-8-(4-hydroxy-1-piperidyl)imidazo[1,2-a]pyrazin-3-yl]indolin-2-one], for which the IC50 is 1.58 nM.
`CN(c1nccn2c(-c3ccc4c(c3)CC(=O)N4)c(-c3ccc(F)cc3)nc12)C1CC1` [Example 46, 5-[8-[Cyclopropyl(methyl)amino]-2-(4-fluorophenyl)imidazo[1,2-a]pyrazin-3-yl]indolin-2-one]: the IC50 is 5.01 nM.
The result for `CC1COCCN1c1nccn2c(-c3ccc4c(c3)CC(=O)N4)c(-c3ccc(F)cc3)nc12` (stereo not drawn) [Example 39, 5-[2-(4-Fluorophenyl)-8-(3-methylmorpholin-4-yl)imidazo[1,2-a]pyrazin-3-yl]indolin-2-one] reads 0.794 nM; that for `O=S1(=O)Cc2cc(-c3c(-c4ccc(F)cc4)nc4c(N5CC6(COC6)C5)nccn34)ccc2N1` [Example 108, 5-(2-(4-Fluorophenyl)-8-(2-oxa-6-azaspiro[3.3]heptan-6-yl)imidazo[1,2-a]pyrazin-3-yl)-1,3-dihydrobenzo[c]isothiazole 2,2-dioxide], 15.8 nM.
In the case of `CC(C)(C)c1nn2cnc(C(F)(F)F)cc2c1-c1ccc2c(c1)CC(=O)N2` [Example 225, 5-[2-tert-Butyl-5-(trifluoromethyl)pyrazolo[1,5-c]pyrimidin-3-yl]indolin-2-one], the IC50 is 501 nM.
As to `O=C1Cc2cc(-c3c(-c4ccc(F)cc4)nc4c(N5CCC(O)C(F)(F)C5)nccn34)ccc2N1` (stereo not drawn) [Example 71, 5-[8-(3,3-Difluoro-4-hydroxy-1-piperidyl)-2-(4-fluorophenyl)imidazo[1,2-a]pyrazin-3-yl]indolin-2-one], the IC50 was 0.251 nM.
For the molecule `Cc1cnc(N2CCOCC2)n2nc(-c3ccccc3)c(-c3ccc4c(c3)CC(=O)N4)c12` [Example 208, 5-(4-Methyl-7-morpholino-2-phenyl-pyrazolo[1,5-c]pyrimidin-3-yl)indolin-2-one], the IC50 is 0.126 nM.
The result for `CC(=O)N1CC=C(c2nccn3c(-c4ccc(O)cc4)c(-c4ccc(F)cc4)nc23)CC1` [Example 130, 1-[4-[2-(4-Fluorophenyl)-3-(4-hydroxyphenyl)imidazo[1,2-a]pyrazin-8-yl]-3,6-dihydro-2H-pyridin-1-yl]ethanone] reads 158 nM.
For the molecule `O=C1Cc2cc(-c3c(-c4ccccc4)nn4c(N5CCOCC5)ncc(Br)c34)ccc2N1` [Example 207, 5-(4-Bromo-7-morpholino-2-phenyl-pyrazolo[1,5-c]pyrimidin-3-yl)indolin-2-one], the IC50 is 0.398 nM.
As to `Nc1nccn2c(-c3ccc4[nH]c(=O)[nH]c4c3)c(-c3ccc(F)cc3)nc12` [Example 87, 5-[8-Amino-2-(4-fluorophenyl)imidazo[1,2-a]pyrazin-3-yl]-1,3-dihydrobenzimidazol-2-one], the IC50 is 398 nM.
